The compounds below were run on A/Udorn/72 (H3N2) virus (assay: Plaque assay in MDCK cells: EC50 by reduction of plaque number). Conditions: not given.
Format: cell-based, influenza virus

SMILES	EC50 [nM]
COc1cccc(-c2cc(CCCO)c(/C=C3\SC(=S)N(C4C5CC6CC(C5)CC4C6)C3=O)[nH]2)c1 (stereo not drawn) [Compound 233]	< 100
COc1cccc(-c2cc(CCCO)c(/C=C3\SC(=S)N(C4C5CC6CC(C5)CC4C6)C3=O)[nH]2)c1 (stereo not drawn) [Compound 238]	250 to 1000

Same assay, conditions: MDCK

SMILES	EC50 [nM]
O=C1/C(=C/c2ccco2)SC(=S)N1C1CCCCCC1 [Compound 219, (Z)-3-cycloheptyl-5-(furan-2-ylmethylene)-2-thioxothiazolidin-4-one]	250 to 1000
O=C1/C(=C/c2ccco2)SC(=S)N1C1CCCCC1 [Compound 220]	250 to 1000
COC(=O)/C=C/c1ccc(/C=C2\SC(=S)N(C3CC4CCC3C4)C2=O)o1 (stereo not drawn) [Compound 221, (E)-Methyl 3-(5-((Z)-(3-(bicyclo[2.2.1]heptan-2-yl)-4-oxo-2-thioxothiazolidin-5-ylidene)methyl)-furan-2-yl)acrylate]	< 100
CCOC(=O)/C=C/c1ccc(/C=C2\SC(=S)N(C3C4CC5CC(C4)CC3C5)C2=O)o1 (stereo not drawn) [Compound 223, (E)-Ethyl 3-(5-((Z)-(3-(adamantan-2-yl)-4-oxo-2-thioxothiazolidin-5-ylidene)methyl)furan-2-yl)acrylate]	< 100
COC(=O)/C=C/c1ccc(/C=C2\SC(=S)N(C3C4CC5CC(C4)CC3C5)C2=O)o1 (stereo not drawn) [Compound 224]	< 100
O=C1/C(=C/c2ccc(-c3ccc(-c4ccccc4)cc3)o2)SC(=S)N1C1CC2CCC1C2 (stereo not drawn) [Compound 226]	< 100
COc1ccc2c(O)c(-c3ccc(-c4ccc(/C=C5\SC(=S)N(C6CC7CCC6C7)C5=O)o4)cc3)c(=O)oc2c1 (stereo not drawn) [Compound 227]	< 100
O=C1/C(=C/c2[nH]c(-c3ccc(Cl)cc3)cc2CCCO)SC(=S)N1C1CC2CCC1C2 (stereo not drawn) [Compound 229]	< 100
O=C1/C(=C/c2[nH]c(-c3ccc(Cl)cc3)cc2CCCCCO)SC(=S)N1C1CC2CCC1C2 (stereo not drawn) [Compound 230]	< 100
CC(=O)OCCCc1cc(-c2ccc(Cl)cc2)[nH]c1/C=C1\SC(=S)N(C2CC3CCC2C3)C1=O (stereo not drawn) [Compound 231]	< 100
COc1cccc(-c2cc(CCCO)c(/C=C3\SC(=S)N(C4CC5CCC4C5)C3=O)[nH]2)c1 (stereo not drawn) [Compound 232]	< 100
O=C1/C(=C/c2[nH]c(-c3ccc(Cl)cc3)cc2CCCO)SC(=S)N1C1C2CC3CC(C2)CC1C3 (stereo not drawn) [Compound 234]	< 100
COc1cccc(-c2cc(CCCCCO)c(/C=C3\SC(=S)N(C4CC5CCC4C5)C3=O)[nH]2)c1 (stereo not drawn) [Compound 235]	< 100
O=C1/C(=C/c2[nH]c(-c3ccc(Cl)cc3)cc2CCCCCO)SC(=S)N1C1C2CC3CC(C2)CC1C3 (stereo not drawn) [Compound 236]	< 100
COc1cccc(-c2cc(CCCCCO)c(/C=C3\SC(=S)N(C4C5CC6CC(C5)CC4C6)C3=O)[nH]2)c1 (stereo not drawn) [Compound 237]	< 100
CC(C)(C)N1C(=O)C[C@@H](C(=O)OCCCCCc2cc(-c3ccc(Cl)cc3)[nH]c2/C=C2\SC(=S)N(C3C4CC5CC(C4)CC3C5)C2=O)NC1=O (stereo partly drawn) [Compound 251]	< 100
CC(C)(C)N1C(=O)C[C@@H](C(=O)OCCCc2cc(-c3ccc(Cl)cc3)[nH]c2/C=C2\SC(=S)N(C3C4CC5CC(C4)CC3C5)C2=O)NC1=O (stereo partly drawn) [Compound 252]	< 100
CC(C)(C)OC(=O)N[C@@H](CC(N)=O)C(=O)OCCCc1cc(-c2ccc(Cl)cc2)[nH]c1/C=C1\SC(=S)N(C2C3CC4CC(C3)CC2C4)C1=O (stereo partly drawn) [Compound 253]	< 100
CC(C)(C)OC(=O)N[C@@H](CC(N)=O)C(=O)OCCCCCc1cc(-c2ccc(Cl)cc2)[nH]c1/C=C1\SC(=S)N(C2C3CC4CC(C3)CC2C4)C1=O (stereo partly drawn) [Compound 254]	< 100
CC(C)(C)OC(=O)N[C@@H](CC(N)=O)C(=O)N1CCN(CCCCCc2cc(-c3ccc(Cl)cc3)[nH]c2/C=C2\SC(=S)N(C3CC4CCC3C4)C2=O)CC1 (stereo partly drawn) [Compound 255]	< 100
O=C1/C(=C/c2cc(CCCO)c(-c3ccc(Cl)cc3)n2Cc2ccccc2)SC(=S)N1C1CC2CCC1C2 (stereo not drawn) [Compound 256]	< 100

SMILES	EC50 [nM]
O=C1/C(=C/c2cc(CCCO)c(-c3ccc(Cl)cc3)n2Cc2ccccc2)SC(=S)N1C1C2CC3CC(C2)CC1C3 (stereo not drawn) [Compound 257]	< 100
Cn1c(-c2ccc(Cl)cc2)cc(CCCO)c1/C=C1\SC(=S)N(C2CC3CCC2C3)C1=O (stereo not drawn) [Compound 258]	> 1000
Cn1c(-c2ccc(Cl)cc2)cc(CCCO)c1/C=C1\SC(=S)N(C2C3CC4CC(C3)CC2C4)C1=O (stereo not drawn) [Compound 259]	> 1000
Cn1c(-c2ccc(Cl)cc2)cc(CCCCCO)c1/C=C1\SC(=S)N(C2CC3CCC2C3)C1=O (stereo not drawn) [Compound 260]	< 100
Cn1c(-c2ccc(Cl)cc2)cc(CCCCCO)c1/C=C1\SC(=S)N(C2C3CC4CC(C3)CC2C4)C1=O (stereo not drawn) [Compound 261]	< 100
COc1cccc(-c2cc(CCCCCO)c(/C=C3\SC(=S)N(C4CC5CCC4C5)C3=O)n2C)c1 (stereo not drawn) [Compound 262]	> 1000
COc1cccc(-c2cc(CCCCCO)c(/C=C3\SC(=S)N(C4C5CC6CC(C5)CC4C6)C3=O)n2C)c1 (stereo not drawn) [Compound 263]	250 to 1000
COc1cccc(-c2cc(CCCO)c(/C=C3\SC(=S)N(C4CC5CCC4C5)C3=O)n2C)c1 (stereo not drawn) [Compound 264]	250 to 1000
Cn1c(/C=C2\SC(=S)N(C3CC4CCC3C4)C2=O)cc(C#CCCCO)c1-c1ccc(Cl)cc1 (stereo not drawn) [Compound 265]	< 100
COc1cccc(-c2c(C#CCCCO)cc(/C=C3\SC(=S)N(C4CC5CCC4C5)C3=O)n2C)c1 (stereo not drawn) [Compound 266]	< 100
COc1cccc(-c2c(C#CCCCOC(=O)[C@H](CC(N)=O)NC(=O)OC(C)(C)C)cc(/C=C3\SC(=S)N(C4C5CC6CC(C5)CC4C6)C3=O)n2C)c1 (stereo partly drawn) [Compound 270]	< 100
COc1cccc(-c2c(C#CCCCOC(=O)[C@H](CC(N)=O)NC(=O)OC(C)(C)C)cc(/C=C3\SC(=S)N(C4CC5CCC4C5)C3=O)n2C)c1 (stereo partly drawn) [Compound 271]	< 100
Cn1c(/C=C2\SC(=S)N(C3CC4CCC3C4)C2=O)cc(C#CCCCOC(=O)[C@H](CC(N)=O)NC(=O)OC(C)(C)C)c1-c1ccc(Cl)cc1 (stereo partly drawn) [Compound 272]	< 100
Cn1c(/C=C2\SC(=S)N(C3CC4CCC3C4)C2=O)cc(C#CCCCOC(=O)[C@@H]2CC(=O)N(C(C)(C)C)C(=O)N2)c1-c1ccc(Cl)cc1 (stereo partly drawn) [Compound 273]	100 to 250
O=C1/C(=C/c2sc(-c3ccc(Cl)cc3)cc2-c2ccc(Cl)cc2)SC(=S)N1C1CC2CCC1C2 (stereo not drawn) [Compound 274]	< 100
O=C1/C(=C/c2sc(-c3ccc(Cl)cc3)cc2-c2ccc(Cl)cc2)SC(=S)N1C1C2CC3CC(C2)CC1C3 (stereo not drawn) [Compound 275]	< 100
O=C1/C(=C/c2sc(-c3ccc(Cl)cc3)cc2CCCO)SC(=S)N1C1CC2CCC1C2 (stereo not drawn) [Compound 276]	< 100
O=C1/C(=C/c2sc(-c3cccc(Cl)c3)cc2CCCCCO)SC(=S)N1C1CC2CCC1C2 (stereo not drawn) [Compound 277]	< 100
O=C1/C(=C/c2sc(-c3ccc(Cl)cc3)cc2CCCCCO)SC(=S)N1C1CC2CCC1C2 (stereo not drawn) [Compound 278]	< 100
COc1cccc(-c2cc(CCCCCO)c(/C=C3\SC(=S)N(C4C5CC6CC(C5)CC4C6)C3=O)s2)c1 (stereo not drawn) [Compound 279]	< 100
COc1cccc(-c2cc(CCCCCO)c(/C=C3\SC(=S)N(C4CC5CCC4C5)C3=O)s2)c1 (stereo not drawn) [Compound 280]	< 100

SMILES	EC50 [nM]
O=C1/C(=C/c2sc(-c3ccc(Cl)cc3)cc2CCCCCO)SC(=S)N1C1C2CC3CC(C2)CC1C3 (stereo not drawn) [Compound 281]	< 100
COc1cccc(-c2cc(CCCO)c(/C=C3\SC(=S)N(C4C5CC6CC(C5)CC4C6)C3=O)s2)c1 (stereo not drawn) [Compound 282]	< 100
O=C1/C(=C/c2cc(CCCCCO)c(-c3ccc(Cl)cc3)s2)SC(=S)N1C1C2CC3CC(C2)CC1C3 (stereo not drawn) [Compound 283]	< 100
O=C1/C(=C/c2cc(CCCCCO)c(-c3ccc(Cl)cc3)s2)SC(=S)N1C1CC2CCC1C2 (stereo not drawn) [Compound 284]	< 100
O=C1/C(=C/c2sc(-c3cccc(Cl)c3)cc2C#CCCCO)SC(=S)N1C1C2CC3CC(C2)CC1C3 (stereo not drawn) [Compound 285]	< 100
O=C1/C(=C/c2sc(-c3cccc(Cl)c3)cc2C#CCCCO)SC(=S)N1C1CC2CCC1C2 (stereo not drawn) [Compound 286]	< 100
O=C1/C(=C/c2cc(C#CCCCO)c(-c3ccc(Cl)cc3)s2)SC(=S)N1C1C2CC3CC(C2)CC1C3 (stereo not drawn) [Compound 287]	< 100
O=C1/C(=C/c2cc(C#CCCCO)c(-c3ccc(Cl)cc3)s2)SC(=S)N1C1CC2CCC1C2 (stereo not drawn) [Compound 288]	< 100
COc1cccc(-c2sc(/C=C3\SC(=S)N(C4C5CC6CC(C5)CC4C6)C3=O)cc2C#CCCCO)c1 (stereo not drawn) [Compound 289]	< 100
O=C1/C(=C/c2sc(-c3ccc(Cl)cc3)cc2C#CCCCO)SC(=S)N1C1C2CC3CC(C2)CC1C3 (stereo not drawn) [Compound 290]	< 100
O=C1/C(=C/c2sc(-c3ccc(Cl)cc3)cc2C#CCCCO)SC(=S)N1C1CC2CCC1C2 (stereo not drawn) [Compound 291]	< 100
COc1cccc(-c2cc(C#CCCCO)c(/C=C3\SC(=S)N(C4CC5CCC4C5)C3=O)s2)c1 (stereo not drawn) [Compound 292]	< 100
CC(C)(C)OC(=O)N[C@@H](CC(N)=O)C(=O)OCCCCCc1cc(-c2ccc(Cl)cc2)sc1/C=C1\SC(=S)N(C2C3CC4CC(C3)CC2C4)C1=O (stereo partly drawn) [Compound 308]	< 100
CC(C)(C)N1C(=O)C[C@@H](C(=O)OCCCCCc2cc(-c3cccc(Cl)c3)sc2/C=C2\SC(=S)N(C3C4CC5CC(C4)CC3C5)C2=O)NC1=O (stereo partly drawn) [Compound 309]	< 100
COc1cccc(-c2cc(CCCCCOC(=O)[C@H](CC(N)=O)NC(=O)OC(C)(C)C)c(/C=C3\SC(=S)N(C4C5CC6CC(C5)CC4C6)C3=O)s2)c1 (stereo partly drawn) [Compound 310]	< 100
CC(C)(C)OC(=O)N[C@@H](CC(N)=O)C(=O)OCCCC#Cc1cc(-c2cccc(Cl)c2)sc1/C=C1\SC(=S)N(C2CC3CCC2C3)C1=O (stereo partly drawn) [Compound 311]	< 100
CC(C)(C)OC(=O)N[C@@H](CC(N)=O)C(=O)OCCCC#Cc1cc(-c2cccc(Cl)c2)sc1/C=C1\SC(=S)N(C2C3CC4CC(C3)CC2C4)C1=O (stereo partly drawn) [Compound 312]	< 100
COc1cccc(-c2cc(CCCCCOC(=O)[C@H](CC(N)=O)NC(=O)OC(C)(C)C)c(/C=C3\SC(=S)N(C4CC5CCC4C5)C3=O)s2)c1 (stereo partly drawn) [Compound 313]	< 100
COc1cccc(-c2cc(C#CCCCOC(=O)[C@H](CC(N)=O)NC(=O)OC(C)(C)C)c(/C=C3\SC(=S)N(C4CC5CCC4C5)C3=O)s2)c1 (stereo partly drawn) [Compound 314]	< 100
